Entries after “also recorded” stand apart in the source; their conditions may differ.
What was measured:
K562 cells [1] = test: K562 cell viability by propidium iodide exclusion over four days; assay type: cell-based; conditions: single dose, 1 mM phenformin, 750 nM imatinib, 25 nM rapamycin, FIG. 1B
Procedure: (§1) K562 cell line was obtained from ATCC.
K562 cells were treated with a single dose of imatinib, rapamycin, or phenformin, and assessed for cell number (Coulter Counter) and cell viability (by propidium iodide exclusion) over four days.

STAT5 = test: Western blot of phospho-STAT5 (tyr694/699) in K562 cells 24 hours after inhibitor treatment; assay type: cell-based; conditions: relative to untreated, FIG. 2
From the text: (§2) Western Blot Analysis. Cells were lysed in radioimmunoprecipitation (RIPA) buffer containing protease inhibitors (Complete Mini, Roche Applied Science), and protease inihibitors cocktails I and II (Sigma). BCA Protein Assay kit (Pierce Biotechnology) was used to assess and standardize protein concentrations. Proteins were resolved using a 4-12% NuPage Bis-Tris polyacrylamide gels (Invitrogen), and transferred to nitrocellulose membranes. Membranes were blocked using 5% nonfat dry skim milk and 0.1% Tween. […] Bands were subsequently detected using horseradish-peroxidase conjugated anti-mouse or anti-rabbit secondary antibodies (GE Healthcare Industries) and enhanced chemiluminescence detection kit (Amersham).
(§3) To characterize the pattern of signaling pathway activation in inhibitor-treated cells, the activity of the Akt and Jak-STAT pathways were examined, two pathways known to be activated by the bcr-abl oncogenic signaling. Proteins were isolated from cells, 24 hours after inhibitor treatment, and assessed for levels of phospho-Akt ([…]) and phospho-STAT5 (tyr694/699), as well as total levels of these proteins as loading controls.

Akt = test: Western blot of phospho-Akt in K562 cells 24 hours after inhibitor treatment; assay type: cell-based; conditions: relative to untreated, FIG. 2
From the text: as §2, §3

K562 cells [2] = test: Aerobic glycolysis: total glucose consumption and lactate production of K562 cultures over four days (Nova Bioprofile Flex Analyzer); assay type: cell-based; conditions: for glucose consumption: FIG. 5A; for lactate production: FIG. 5B
Procedure: (§4) Daily cell culture supernatants were collected, and analyzed using the Nova Biomedical Bioprofile Flex Analyzer, which determined glucose, glutamine, lactate, and ammonia levels. For the HIF-1 induction experiments, K562 cells were incubated at 4 million cells/ml in a plastic tube (Falcon 35-2059) with rubber stopper (Kontes Glass Company #882310), with constant stirring at 37 C. At indicated time points, tubes were spun to pellet cells, and the glucose, lactate and pO2 content of supernatant was assessed by syringe sampling through an air-tight rubber stopper. After supernatant sampling, cells were collected and lysates were prepared as described above.
To investigate the metabolic effects of phenformin on K562 cells, we compared the glycolytic activity of the cells in the drug-treated cultures by quantifying total glucose consumption and lactate production over four days (FIGS. 5A and 5B, respectively), by collecting and analyzing daily cell culture supernatants using a Nova Biomedical Bioprofile Flex Analyzer. […] Phenformin was therefore novel in its ability to dissociate aerobic glycolysis from cell proliferation.

K562 cells [3] = test: K562 viability under medium depletion of glucose or glutamine (propidium iodide exclusion, FACS); assay type: cell-based; conditions: K562, 4 days; FIG. 7
Procedure: as §1
The viability of K562 cells after variable inhibitor treatment, and selective medium depletion of glucose or glutamine, is shown. Cell viability was determined by propidium iodide exclusion of 10,000 cells (via FACS analysis), taken from each culture each day of experiment.

K562 cells [4] = test: Glutamine uptake of K562 cultures over four days; assay type: cell-based; conditions: FIG. 8
Procedure: as §4
To further investigate what functional role the TCA cycle might play in K562 proliferation, we compared the ability of phenformin-treated cells to metabolize glutamine. In tumor cells, glutaminolysis is important in maintaining TCA cycle activity, as it serves to provide an additional source of TCA cycle intermediates (a-ketoglutarate) to the mitochondria.

K562 cells [5] = test: K562 proliferation, cell number by Coulter Counter over four days after a single dose of inhibitor; conditions: FIG. 1A; for effect on K562 proliferation (cell number): 25 nM rapamycin, four days
K562 cells [6] = test: Comparison of phenformin and metformin: total K562 cell number after three days over a range of biguanide concentrations; assay type: cell-based; conditions: three days after a single dose, FIG. 3; for inhibition of K562 proliferation: started at 200,000 cells/ml
From the text: Direct comparison of metformin and phenformin activity, over a range of biguanide concentrations, was accomplished by comparing total K562 cell number after three days of exposure to a single dose of phenformin or metformin, as indicated (FIG. 3). Cell cultures were started at a density of 200,000 cells/ml.

[7] = treatment of diabetes; background statement; cited from earlier work
[8] = system: Bax-Bak deficient lymphocytes; test: Proliferation of Bax-Bak deficient lymphocytes with IL-3 stimulation, total cell number after three days; assay type: cell-based; conditions: three days after a single dose, started at 200,000 cells/ml, FIG. 4
Procedure: The ability of phenformin to inhibit the proliferation of Bax-Bak deficient lymphocytes, in the presence of IL-3 stimulation, was assessed, and compared to the activity of metformin. Direct comparison of metformin and phenformin activity, over a range of biguanide concentrations, was accomplished by comparing total cell numbers of bax-bak deficient cells after three days exposure to a single dose of phenformin or metformin, as indicated (FIG. 4). Cell cultures were started at a density of 200,000 cells/ml.

K562 cells [9] = test: Oxygen consumption rate (electron transport activity), Clarke oxygen electrode; assay type: cell-based; conditions: 24 hours inhibitor treatment, relative to untreated, FIG. 6A
Procedure: (§5) Oxygen consumption by whole cells was measured as previously described. See Schumacker P T, Chandei N, Agusti A G. Oxygen conformance of cellular respiration in hepatocytes. Am J. Physiol. 1993; 265:L395-402. Briefly, inhibitor-treated (24 hours) K562 cells were resuspended at a concentration of 4 million cells/ml, and 1.4 mL of culture was transferred to a water-jacketed, airtight 3 ml chamber with a Clarke oxygen electrode, (Hansatech Instruments). Electron transport activity was manipulated through mitochondrial uncoupling with 10 uL of 1 mM Carbonyl cyanide 3-chlorophenylhydrazone (CCCP) (Sigma), and media supplementation of sodium Succinate (25 uL of 1M stock), after membrane permeabilization with […] (4 ul of 25 mg/ml stock). Relative ATP levels were assessed using the Invitrogen ATP determination kit (A22066), as per protocol, using 25,000 cell pellets. Cells were assayed after 24 hours of inhibitor treatment, as indicated, and results were expressed as Arbitrary Units/25000 cells.
Electron Transport Activity (ETC) activity, as determined by oxygen consumption rates, was assessed after treatment with each inhibitor, using a water-jacketed, airtight 3 ml chamber with a Clarke oxygen electrode, (Hansatech Instruments).

K562 cells [10] = test: Intracellular ATP levels (Invitrogen ATP determination kit); assay type: cell-based; conditions: K562, 24 hours of inhibitor treatment; 25,000 cell pellets; FIG. 6B
Procedure: as §5
Cells were assayed after 24 hours of inhibitor treatment, as indicated, and results were expressed as Arbitrary Units/25000 cells. Oxygen consumption correlated closely with relative levels of intracellular ATP.

c-myc = test: Western blot of BCR-Abl-induced c-myc expression in K562 cells after 24 hours of inhibitor treatment; assay type: cell-based; conditions: K562, 24 hours of inhibitor treatment; FIG. 9
From the text: Western Blot Analysis. Cells were lysed in radioimmunoprecipitation (RIPA) buffer containing protease inhibitors (Complete Mini, Roche Applied Science), and protease inihibitors cocktails I and II (Sigma). BCA Protein Assay kit (Pierce Biotechnology) was used to assess and standardize protein concentrations. Proteins were resolved using a 4-12% NuPage Bis-Tris polyacrylamide gels (Invitrogen), and transferred to nitrocellulose membranes. Membranes were blocked using 5% nonfat dry skim milk and 0.1% Tween. Blots were subsequently probed with primary antibodies against: REDD-1 (Proteintech Group Inc), phospho-ser235/236 S6RP, total S6RP, phospho-thr172 AMPK, total-AMPK, phospho-tyr694/699 STAT5 (Upstate Biotechnology), total STAT5 (Upstate Biotechnology), phospho-thr202/tyr204 p42/44MAPK, total p42/44 MAPK, c-myc (Santa Cruz Biotechnologies), HIF-1a (Biosciences Pharmingen), and tubulin (Sigma). Unless otherwise indicated, all antibodies were obtained from Cell Signaling Technologies. Bands were subsequently detected using horseradish-peroxidase conjugated anti-mouse or anti-rabbit secondary antibodies (GE Healthcare Industries) and enhanced chemiluminescence detection kit (Amersham).
Expression levels of c-myc in inhibitor and untreated (U) control K562 cells was investigated by Western Blotting of cellular extracts prepared after 24 hours of inhibitor treatment.

K562 cells [11] = test: pO2, glucose and lactate in supernatants of K562 cells incubated in airtight tubes at 37° C.; assay type: cell-based; conditions: 1 to 6 hours, versus untreated, FIG. 10A
Procedure: as §4
Phenformin-treated and untreated K562 cells were transferred to airtight tubes and incubated at 37° C. for 1 to 6 hours. At one hour intervals, supernatants were analyzed for partial oxygen pressure (pO2), glucose, and lactate levels, while cells were collected for protein extract preparation. […] FIG. 10D. Tubulin serves as loading control.

HIF-1 = HIF-1 induction in K562 cells in airtight tubes (Western blot); assay type: cell-based; conditions: 37° C., FIG. 10D
From the text: as §2
Daily cell culture supernatants were collected, and analyzed using the Nova Biomedical Bioprofile Flex Analyzer, which determined glucose, glutamine, lactate, and ammonia levels. […] At indicated time points, tubes were spun to pellet cells, and the glucose, lactate and pO2 content of supernatant was assessed by syringe sampling through an air-tight rubber stopper. […]
Phenformin-treated and untreated K562 cells were transferred to airtight tubes and incubated at 37° C. for 1 to 6 hours. At one hour intervals, supernatants were analyzed for partial oxygen pressure (pO2), glucose, and lactate levels, while cells were collected for protein extract preparation. […]

[12] = 1 mM phenformin, 750 nM imatinib

Compound | cell viability (K562 cells [1]) | Akt phosphorylation (Akt) | glucose consumption (K562 cells [2]) | lactate production (K562 cells [2]) | cell viability in glutamine-depleted medium (K562 cells [3]) | glutamine uptake (K562 cells [4]) | effect on K562 proliferation (cell number) (K562 cells [5]; [12]) | inhibition of K562 proliferation (K562 cells [6]) | risk / incidence of lactic acidosis [7] | also measured
Cc1ccc(NC(=O)c2ccc(CN3CCN(C)CC3)cc2)cc1Nc1nccc(-c2cccnc2)n1 [imatinib] | induced a decrease in viability | left Akt phosphoylation intact | minimal glucose consumption | minimal glucose consumption and lactate production | significantly increased cell death upon glutamine depletion | failed to demonstrate substantial glutamine uptake | halted K562 proliferation | – | – | STAT5 phosphorylation (STAT5): decreased the levels of STAT5 phosphorylation; doubling of cell number achieved before proliferation ceased (K562 cells [5]; 750 nM imatinib): approximately one; time after which proliferation ceased (K562 cells [5]; 750 nM imatinib): 2 days
CN(C)C(=N)NC(=N)N [metformin] | – | – | – | – | – | – | – | relatively weak inhibitor of K562 proliferation | significantly less than that observed with phenformin | –
[H]/N=C(/N)N/C(=N/[H])NCCc1ccccc1 [phenformin] | greater viability over the four days | no suppression of Akt phosphorylation | consumed glucose at rates similar to untreated cells | accumulated lactate and consumed glucose at rates similar to untreated cells | significantly increased cell death upon glutamine depletion | failed to demonstrate substantial glutamine uptake | halted K562 proliferation | more potent inhibitor of K562 proliferation | increased risk of lactic acidosis | potency in inhibiting K562 proliferation relative to metformin (K562 cells [6]): 100 fold; inhibition of proliferation of bax-bak deficient cells [8]: prevents proliferation of bax-bak deficient cells; also recorded: consistently more potent an inhibitor than metformin; oxygen consumption (K562 cells [9]): most dramatically reduced oxygen consumption; intracellular ATP levels (K562 cells [10]): most profoundly reduced; cell viability in glucose-depleted medium (K562 cells [3]): significantly increased cell death upon glucose depletion; c-myc expression (c-myc): inhibited c-myc expression more effectively than rapamycin; also recorded: commensurate in efficacy with imatinib; partial oxygen pressure (pO2) of the culture (K562 cells [11]): dramatically different partial oxygen pressures; also recorded: absence of hypoxia; also recorded: maintained an oxygen-rich environment; HIF-1 induction (HIF-1): prevented HIF-1 induction; also recorded: prevents hypoxia and HIF-1 induction; time after which no increase in cell number was observed (K562 cells [5]; 1 mM phenformin): 24 h

From patent US8574829B2, “Methods of treating cancer with phenformin” (The Trustees Of The University Of Pennsylvania, priority 2009, dated 2013)
